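Exposure lasted 48 hours, with cells grown in 96-well plates and compounds tested at five concentrations. TGI: total growth inhibition.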
Assays:
Assay in all cases: NCI-60 cell line screen, 48 h
EKVX NSCLC = test system: EKVX NSCLC
NCI-H23 lung = test system: NCI-H23 lung
CAKI-1 renal = test system: CAKI-1 renal
K-562 leukemia = test system: K-562 leukemia
SNB-78 CNS = test system: SNB-78 CNS
OVCAR-5 ovarian = test system: OVCAR-5 ovarian
SK-MEL-28 melanoma = test system: SK-MEL-28 melanoma
SK-OV-3 ovarian = test system: SK-OV-3 ovarian
COLO 205 colon = test system: COLO 205 colon
786-0 renal = test system: 786-0 renal
U251 CNS = test system: U251 CNS
SF-295 CNS = test system: SF-295 CNS
DMS 114 small cell lung = test system: DMS 114 small cell lung
M14 melanoma = test system: M14 melanoma
TK-10 renal = test system: TK-10 renal
HT29 colon = test system: HT29 colon
OVCAR-8 ovarian = test system: OVCAR-8 ovarian
KM12 colon = test system: KM12 colon
M19-MEL melanoma = test system: M19-MEL melanoma
MOLT-4 leukemia = test system: MOLT-4 leukemia
SF-268 CNS = test system: SF-268 CNS
MALME-3M melanoma = test system: MALME-3M melanoma
HOP-62 NSCLC = test system: HOP-62 NSCLC
SF-539 CNS = test system: SF-539 CNS
SK-MEL-2 melanoma = test system: SK-MEL-2 melanoma
HOP-18 NSCLC = test system: HOP-18 NSCLC
UACC-62 melanoma = test system: UACC-62 melanoma
OVCAR-4 ovarian = test system: OVCAR-4 ovarian
RPMI-8226 leukemia = test system: RPMI-8226 leukemia
SNB-19 CNS = test system: SNB-19 CNS
RXF 393 renal = test system: RXF 393 renal
OVCAR-3 ovarian = test system: OVCAR-3 ovarian
HCT-116 colon = test system: HCT-116 colon
UO-31 renal = test system: UO-31 renal
A549 NSCLC = test system: A549 NSCLC
IGROV1 ovarian = test system: IGROV1 ovarian
HCC-2998 colon = test system: HCC-2998 colon
KM20L2 colon = test system: KM20L2 colon
SR leukemia = test system: SR leukemia
SN12C renal = test system: SN12C renal
NCI-H460 lung = test system: NCI-H460 lung
HCT-15 colon = test system: HCT-15 colon
NCI-H226 lung = test system: NCI-H226 lung
ACHN renal = test system: ACHN renal
HL-60(TB) leukemia = test system: HL-60(TB) leukemia
HOP-92 NSCLC = test system: HOP-92 NSCLC
SNB-75 CNS = test system: SNB-75 CNS
DLD-1 colon = test system: DLD-1 colon
A498 renal = test system: A498 renal
DMS 273 small cell lung = test system: DMS 273 small cell lung
CCRF-CEM leukemia = test system: CCRF-CEM leukemia
LXFL 529 NSCLC = test system: LXFL 529 NSCLC
UACC-257 melanoma = test system: UACC-257 melanoma
LOX IMVI melanoma = test system: LOX IMVI melanoma
SK-MEL-5 melanoma = test system: SK-MEL-5 melanoma
SW-620 colon = test system: SW-620 colon
NCI-H522 lung = test system: NCI-H522 lung

## C/C(=N\NC(N)=S)c1ccc(C2CCCCC2)cc1
EKVX NSCLC
  TGI: > 100 µM
NCI-H23 lung
  TGI: 56.3 µM
CAKI-1 renal
  TGI: 64.6 µM
K-562 leukemia
  TGI: 39.2 µM
SNB-78 CNS
  TGI: 91.1 µM
OVCAR-5 ovarian
  TGI: 35.1 µM
SK-MEL-28 melanoma
  TGI: 33.7 µM
SK-OV-3 ovarian
  TGI: 75.9 µM
COLO 205 colon
  TGI: 26.1 µM
786-0 renal
  TGI: 31.7 µM
U251 CNS
  TGI: 39.9 µM
SF-295 CNS
  TGI: 21 µM
DMS 114 small cell lung
  TGI: 29.9 µM
M14 melanoma
  TGI: 22.7 µM
TK-10 renal
  TGI: 80.3 µM
HT29 colon
  TGI: 34.5 µM
OVCAR-8 ovarian
  TGI: 36.8 µM
KM12 colon
  TGI: > 100 µM
M19-MEL melanoma
  TGI: > 100 µM
MOLT-4 leukemia
  TGI: 35.7 µM
SF-268 CNS
  TGI: > 100 µM
MALME-3M melanoma
  TGI: 37.6 µM
HOP-62 NSCLC
  TGI: 73.6 µM
SF-539 CNS
  TGI: 38 µM
SK-MEL-2 melanoma
  TGI: 32.8 µM
HOP-18 NSCLC
  TGI: > 100 µM
UACC-62 melanoma
  TGI: 32.2 µM
OVCAR-4 ovarian
  TGI: 38.4 µM
RPMI-8226 leukemia
  TGI: > 100 µM
SNB-19 CNS
  TGI: > 100 µM
RXF 393 renal
  TGI: 27.6 µM
OVCAR-3 ovarian
  TGI: 30.5 µM
HCT-116 colon
  TGI: 44.6 µM
UO-31 renal
  TGI: 41.8 µM
A549 NSCLC
  TGI: > 100 µM
IGROV1 ovarian
  TGI: 62.1 µM
HCC-2998 colon
  TGI: 42 µM
KM20L2 colon
  TGI: 30.1 µM
SR leukemia
  TGI: > 100 µM

## O=c1c2ccccc2nc(-c2ccccc2)n1NC(=S)Nc1cccc(Cl)c1
NCI-H23 lung
  TGI: > 100 µM
CAKI-1 renal
  TGI: > 100 µM
SN12C renal
  TGI: > 100 µM
K-562 leukemia
  TGI: > 100 µM
NCI-H460 lung
  TGI: > 100 µM
OVCAR-5 ovarian
  TGI: > 100 µM
HCT-15 colon
  TGI: > 100 µM
SK-MEL-28 melanoma
  TGI: > 100 µM
SK-OV-3 ovarian
  TGI: > 100 µM
COLO 205 colon
  TGI: > 100 µM
786-0 renal
  TGI: > 100 µM
NCI-H226 lung
  TGI: > 100 µM
ACHN renal
  TGI: > 100 µM
U251 CNS
  TGI: > 100 µM
SF-295 CNS
  TGI: > 100 µM
DMS 114 small cell lung
  TGI: > 100 µM
HL-60(TB) leukemia
  TGI: > 100 µM
HOP-92 NSCLC
  TGI: 94.5 µM
M14 melanoma
  TGI: > 100 µM
TK-10 renal
  TGI: > 100 µM
HT29 colon
  TGI: > 100 µM
SNB-75 CNS
  TGI: 59.6 µM
OVCAR-8 ovarian
  TGI: > 100 µM
DLD-1 colon
  TGI: > 100 µM
A498 renal
  TGI: > 100 µM
KM12 colon
  TGI: > 100 µM
DMS 273 small cell lung
  TGI: > 100 µM
M19-MEL melanoma
  TGI: > 100 µM
MOLT-4 leukemia
  TGI: > 100 µM
SF-268 CNS
  TGI: > 100 µM
CCRF-CEM leukemia
  TGI: > 100 µM
LXFL 529 NSCLC
  TGI: > 100 µM
UACC-257 melanoma
  TGI: > 100 µM
MALME-3M melanoma
  TGI: > 100 µM
LOX IMVI melanoma
  TGI: > 100 µM
HOP-62 NSCLC
  TGI: > 100 µM
SF-539 CNS
  TGI: > 100 µM
SK-MEL-2 melanoma
  TGI: > 100 µM
HOP-18 NSCLC
  TGI: > 100 µM
UACC-62 melanoma
  TGI: > 100 µM
OVCAR-4 ovarian
  TGI: > 100 µM
RPMI-8226 leukemia
  TGI: > 100 µM
RXF 393 renal
  TGI: 67.1 µM
HCT-116 colon
  TGI: > 100 µM
SK-MEL-5 melanoma
  TGI: > 100 µM
SW-620 colon
  TGI: > 100 µM
UO-31 renal
  TGI: > 100 µM
A549 NSCLC
  TGI: > 100 µM
IGROV1 ovarian
  TGI: > 100 µM
NCI-H522 lung
  TGI: > 100 µM
SR leukemia
  TGI: > 100 µM

Source: PubChem BioAssay (NCI)
